# Laboratory results: patent publication US12629359B2 (UNIVERSITA' DEGLI STUDI DI BRESCIA, priority 2020, dated 2026)
# “Also recorded” adds a separate entry of the source.
# What was measured:
# [1] = target: T1, alpha-synuclein/Synapsin III interaction (Homo sapiens, UniProt O14994+P37840); test: Acceptor photobleaching FRET of alpha-synuclein/Synapsin III interaction in neuronal-differentiated SK-N-SH cells; format: cell-based; conditions: 10 μM, 15 min; for stimulation of alpha-synuclein/Synapsin III interaction (FRET efficiency), in words: vs basal
# T1 construct: expressed in transfected cells; host or cells: neuronal-differentiated (retinoic acid) human SK-N-SH neuroblastoma cells, transient transfection with Lipofectamine 3000
# T1 sequence (O14994 whole entry, one chain of several): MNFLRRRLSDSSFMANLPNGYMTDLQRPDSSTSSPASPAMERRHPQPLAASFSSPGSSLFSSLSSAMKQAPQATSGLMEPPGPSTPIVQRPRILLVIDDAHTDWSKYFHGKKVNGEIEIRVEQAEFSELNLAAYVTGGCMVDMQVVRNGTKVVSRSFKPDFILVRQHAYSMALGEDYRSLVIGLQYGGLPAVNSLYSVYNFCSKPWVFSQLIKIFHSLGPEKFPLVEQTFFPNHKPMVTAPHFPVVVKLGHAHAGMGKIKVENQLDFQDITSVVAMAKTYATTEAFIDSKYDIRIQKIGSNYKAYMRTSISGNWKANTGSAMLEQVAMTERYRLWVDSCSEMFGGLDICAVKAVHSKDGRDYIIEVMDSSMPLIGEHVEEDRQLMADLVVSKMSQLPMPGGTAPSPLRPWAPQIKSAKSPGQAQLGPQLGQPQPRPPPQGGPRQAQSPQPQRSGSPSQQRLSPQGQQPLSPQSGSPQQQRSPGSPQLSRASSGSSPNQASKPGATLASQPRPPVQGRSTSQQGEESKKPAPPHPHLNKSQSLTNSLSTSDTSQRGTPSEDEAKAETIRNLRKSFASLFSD
# Protocol: (§1) The ability of the different compound to stimulate alpha-synuclein/Synapsin III interaction was evaluated by acceptor photobleaching FRET or FLIM in neuronal-like cells. In particular, we used neuronal-differentiated SK—N—SH neuroblastoma cells transiently transfected with red fluorescent protein (RFP)-tagged human wild type alpha-synuclein and green fluorescent protein (GFP)-tagged the human 63 kDa Synapsin III isoform.
# Acceptor photobleaching FRET microscopy allows an accurate evaluation of protein-protein interaction through the measurement of FRET efficiency. This parameter is indicative of the increase of donor fluorescence after complete photobleaching of the acceptor fluorescence, within a FRET pair of fluorophores (where the emission wavelength of a donor falls within the excitation wavelength of an acceptor). Since FRET efficiency is detectable only when the two fluorophores are sufficiently close to ensure that their linked proteins are interacting, the molecular proximity of these latter results strictly dependent on this parameter^36,37. […] Human neuroblastoma SK—N—SH cells were grown in complete medium comprising Dulbecco's modified Eagle's medium with 1000 mg glucose/l supplemented with 10% heat-inactivated fetal bovine serum, 100 μg/ml penicillin and 100 μg/ml streptomycin. Cells were maintained at 37° C. under a humidified atmosphere of 5% CO2 and […]. For FRET studies, SK—N—SH cells were seeded onto poli-D-lysine-coated 13 mm glass coverslips in 24-well plates (15000 cells per coverslip) and were maintained in differentiation medium for ten days by daily adding 10 μM retinoic acid to the medium. […] Fixed cells were analyzed by means of a Zeiss confocal laser microscope LSM 880 (Carl Zeiss) with the laser set on A=488-543. After identifying double positive cells three-to-six regions of interest (ROI) were analyzed for 4 series. Two images of basal condition (Pre-bleaching) were acquired before bleaching the RFP acceptor fluorophore with laser 543 set at 65% power. Then, other two images were acquired after the bleaching (Post-bleaching). The FRET efficiency (intended as the GFP recovery after RFP photobleaching) was measured by using Zen black software (Carl Zeiss). The average intensity of the background (outside the cell) was subtracted from the average intensity of the ROI and all the FRET values resulting from the different ROI were used for statistical analysis.
# Human neuroblastoma SK—N—SH cells were grown in complete medium comprising Dulbecco's modified Eagle's medium with 1000 mg glucose/l supplemented with 10% heat-inactivated fetal bovine serum, 100 μg/ml penicillin and 100 μg/ml streptomycin. Cells were maintained at 37° C. under a humidified atmosphere of 5% CO2 and […]. For FRET studies, SK—N—SH cells were seeded onto poli-D-lysine-coated 13 mm glass coverslips in 24-well plates (15000 cells per coverslip) and were maintained in differentiation medium for ten days by daily adding 10 μM retinoic acid to the medium. […] Fixed cells were analyzed by means of a Zeiss confocal laser microscope LSM 880 (Carl Zeiss) with the laser set on λ=488-543. After identifying double positive cells three-to-six regions of interest (ROI) were analyzed for 4 series. Two images of basal condition (Pre-bleaching) were acquired before bleaching the RFP acceptor fluorophore with laser 543 set at 65% power. Then, other two images were acquired after the bleaching (Post-bleaching). The FRET efficiency (intended as the GFP recovery after RFP photobleaching) was measured by using Zen black software (Carl Zeiss). The average intensity of the background (outside the cell) was subtracted from the average intensity of the ROI and all the FRET values resulting from the different ROI were used for statistical analysis.
# [2] = target: T1, alpha-synuclein/Synapsin III interaction; test: FLIM-FRET (donor lifetime) of alpha-synuclein/Synapsin III interaction in SK-N-SH cells; format: cell-based; conditions: 10 μM, 15 min after treatment
# Protocol: as §1
# The comparison of the lifetimes of the donor alone and in presence of the acceptor allows for precise and concentration-independent measurements of FRET efficiency. Fluorescence lifetime is defined as the average time that a fluorophore spends in the excited state after the absorption of light, prior to returning to the ground state by emitting a photon. Donor fluorescence lifetime is decreased when FRET occurs between the fluorophore pair. The comparison of the lifetimes of the donor alone and in presence of the acceptor allows for precise and concentration-independent measurements of FRET efficiency (Ishikawa-Ankerhold, H. C. et al. Molecules (Basel, Switzerland) 2012, 17, 4047-4132). Human neuroblastoma SK—N—SH cells were grown in complete medium comprising Dulbecco's modified Eagle's medium with 1000 mg glucose/l supplemented with 10% heat-inactivated fetal bovine serum, 100 μg/ml penicillin and 100 μg/ml streptomycin. Cells were maintained at 37° C. under a humidified atmosphere of 5% CO2 and […]. For FRET/FLIM studies, SK—N—SH cells were seeded onto poli-D-lysine-coat 1.7 cm2 glass chamber (15000 cells per well) and were maintained in differentiation medium for ten days by daily adding 10 μM retinoic acid to the medium. […] The time-domain FLIM was measured using a Time-Correlated Single Photon Counting (TCSPC) (PicoQuant) operated with SymPhoTime 64 software (PicoQuant). […] The images of GFP fluorescence generated in ZEN software were stored and processed with SymPhoTime 64. The mean fluorescence intensities within cell body were determined using the ROI tool in SymPhoTime 64. […] The fluorescence lifetime analysis was performed in the SymPhoTime 64 software within the cell body, automatically recognized by the software as ROI 0. Individual photon arrivals were detected using a SPAD detector and events were recorded by a PicoHarp 300 TCSPC module. […] The percentage FLIM-FRET efficiency was calculated as: 100×[1−(lifetime of donor with FRET/lifetime of donor without FRET)]. For lifetime analysis, fifteen cells were recorded for each condition, included GFP alone.
Compound,"stimulation of alpha-synuclein/Synapsin III interaction (FRET efficiency), in words [1]","stimulation of alpha-synuclein/Synapsin III interaction (FLIM), in words [2]",% FRET efficiency change vs control untreated cells ([1]; neuronally differentiated SK-N-SH cells),% FRET efficiency change vs MPH-treated cells ([1]; vs MPH 10 μM),% FRET efficiency change vs VI-threo-treated cells ([1]; vs VI-threo 10 μM),% decrease of tau amplitude (donor lifetime) vs MPH treated cells [2],% decrease of tau amplitude (donor lifetime) vs untreated cells [2]
COC(=O)[C@H](c1ccc(C)cc1)C1CCCCN1.Cl (stereo partly drawn) [I-erythro],not able to stimulate alpha-synuclein/Synapsin III interaction; also recorded: No significant increase,did not stimulate alpha-synuclein/Synapsin III interaction,,,,,
"COC(=O)[C@@H](c1ccc(C)cc1)C1CCCCN1.Cl (stereo partly drawn) [I-threo, threo methyl 2-(piperidin-2-yl)-2-(p-tolyl)acetate hydrochloride]",significant increase in the FRET efficiency,able to promote alpha-synuclein/synapsin III interaction,+8.8%,+5.5%,+5.2%,-8.4%,-11.95%
